# Patent US20240216344A1, “THIAZOLIDINEDIONE ANALOGS FOR THE TREATMENT OF NAFLD AND METABOLIC DISEASES” (Cirius Therapeutics, Inc., priority 2019, published 2024)
# System: patients with biopsy-confirmed NASH
# Assay: EMMINENCE post hoc multivariable models and canonical correlation of biomarker changes with histological changes
# Set-up: species or system human
# Description: EMMINENCE was a phase 2 study examining the effects of three doses of MSDC-0602K versus placebo on liver histology in 392 patients with biopsy-confirmed nonalcoholic steatohepatitis (NASH). Patients provided written informed consent, and the protocol and consent form were approved by applicable institutional review boards. Baseline and 12-month biopsies were scored by a single expert hepatopathologist using the NASH Clinical Research Network (CRN) scoring criteria. Fasting blood samples for routine clinical chemistry as well as frozen samples for biomarker assays were analyzed centrally. In this post hoc analysis, multivariable models and partial canonical correlation were used to examine the associations between changes in biomarkers and changes in histological scores from baseline to 12 months in the 339 patients with paired biopsies. The trial was registered on ClinicalTrials.gov (NCT02784444).
# Individual patient data from the 339 subjects with paired biopsy results in EMMINENCE were used to construct univariable and multivariable ANCOVA models for the 12-month change in each histological component (steatosis, inflammation, ballooning, and fibrosis). Candidate predictors included age, sex, type 2 diabetes (T2D) history, and baseline and 12-month changes in weight and laboratory parameters (liver injury markers, cholesterols, insulin sensitivity markers, ELF, CK-18). Non-linearity of the association between each continuous predictor and each outcome was examined by assessing the significance of the non-linear components of a restricted cubic spline transformation for each predictor. Appropriate transformations (quadratic, cubic, linear spline, log 2) were applied where deemed necessary based on review of the Akaike's Information Criterion and visual examination of plots of the predicted outcomes against each predictor. Due to issues with estimating the associations when severe multicollinearity exists between predictors in the model, ALT (collinear with AST) and waist circumference (collinear with weight) were excluded as candidate predictors. Multiple imputation with ten imputed datasets and assuming multivariate normality was used to handle missing values. The occurrence of missing data for any of the predictors was relatively low ([…] missing one or more predictor values). Rubin's algorithm was used for average estimates for predictors across the imputed datasets. Backwards selection was used for each outcome, with predictors remaining in a majority of the ten imputed datasets at the 0.05 significance level (>5) included in the final model. Each model was adjusted for the baseline value of the outcome. If a change from baseline predictor was included in the final model, then the baseline value for the parameter was also included in the final model.
# A second multivariable model was fit for each outcome including the predictors found prognostic for any of the biopsy component changes. A multivariable ANCOVA model that included these predictors was run for NAS (the sum of ballooning, inflammation, and steatosis scores). Multivariable logistic regression models that included these predictors were also run for the binary outcomes of NASH resolution without worsening of fibrosis and fibrosis improvement without worsening of NASH.
# A partial canonical correlation using individual patient data from EMMINENCE examined the correlation of changes in weight, AST, HbA1c, GGT, CK-18 (taken together) with changes in ballooning, inflammation, steatosis, and fibrosis (taken together) adjusted for those baseline variables prognostic of any of the histological feature changes in the multivariable models in the 306 subjects with complete observed data for the variables involved. This analysis results in “canonical variates” that are linear combinations of the original sets of variables weighted in such a way as to maximize the correlation between them. […]
# [1] = effect size for a change of 20 in MSDC-0602K Dose, multivariable model with dose added
# [2] = effect size for a change of 20 in MSDC-0602K Dose, univariable model
compound,measurement,setting,value
COc1cccc(C(=O)COc2ccc(CC3SC(=O)NC3=O)cc2)c1 (stereo not drawn) [MSDC-0602K],"Effect Size, change from baseline in steatosis, Multivariable Model","MSDC-0602K Dose, multivariable model with dose added, size of change not given",−0.03
same,Effect Size for a change of 20 in MSDC-0602K Dose; outcome change from baseline in fibrosis,Multivariable model,−0.01
same,Effect Size for change of 20 in MSDC-0602K Dose; outcome NAS,Multivariable model,−0.03
same,Effect Size for a change of 20 in MSDC-0602K Dose; outcome change from baseline in fibrosis,Univariable Model,−0.02
same,"Effect Size, change from baseline in ballooning, Multivariable Model",[1],−0.02
same,"Effect Size, change from baseline in inflammation, Multivariable Model",[1],0.01
same,"Effect Size, change from baseline in ballooning, Univariable Model",[2],−0.01
same,"Effect Size, change from baseline in inflammation, Univariable Model",[2],−0.01
same,"Effect Size, change from baseline in steatosis, Univariable Model",[2],−0.03
